Data from article PMC11081424 (Protein Science : A Publication of the Protein Society, 2024).

Molecular target: T1, TPARED (Comamonas sp., UniProt Q3C1E0)
T1 sequence (Q3C1E0 1-336): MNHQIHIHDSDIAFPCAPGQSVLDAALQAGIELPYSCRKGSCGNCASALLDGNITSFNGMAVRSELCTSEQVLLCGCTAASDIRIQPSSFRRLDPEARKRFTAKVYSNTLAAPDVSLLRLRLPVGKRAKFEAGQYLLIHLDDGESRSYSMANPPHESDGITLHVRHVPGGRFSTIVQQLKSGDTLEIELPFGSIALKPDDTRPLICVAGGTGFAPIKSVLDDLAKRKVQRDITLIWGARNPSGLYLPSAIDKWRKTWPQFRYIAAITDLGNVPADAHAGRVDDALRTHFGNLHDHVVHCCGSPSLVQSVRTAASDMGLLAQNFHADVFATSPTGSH
Experiment: FAD released by acid denaturation, UV/vis at […] nm
Assay type: binding
Conditions: as purified, three purifications

Cc1cc2nc3c(=O)[nH]c(=O)nc-3n(C[C@H](O)[C@H](O)[C@H](O)COP(=O)(O)OP(=O)(O)OC[C@H]3O[C@@H](n4cnc5c(N)ncnc54)[C@H](O)[C@@H]3O)c2cc1C [FAD]
equivalents of FAD per protein: 0.95 ± 0.08 equivalents
